Measured values as given in patent US12551565B2, “CD44 targeted multi-arm conjugate” (priority 2019, dated 2026).

System: human small cell lung cancer cell NCI-H446
Experiment: Xenograft model of human small cell lung cancer cell NCI-H446 in nude mice
Type: in vivo, BALB/c nude mice
Conditions: tail vein injection, QW×3, 6 mg·kg^−1

CCc1c2c(nc3ccc(OC(=O)N4CCC(N5CCCCC5)CC4)cc13)-c1cc3c(c(=O)n1C2)COC(=O)[C@]3(O)CC [Irinotecan]
Relative tumor proliferation rate (% T/C): 66.0%
